Reference: publication PMC5532651, “Bistratamides M and N, Oxazole-Thiazole Containing Cyclic Hexapeptides Isolated from Lissoclinum bistratum Interaction of Zinc (II) with Bistratamide K” (Marine Drugs, 2017)

Assays:
[1] = test system: MDA-MB-231 human breast adenocarcinoma cells; assay: Cell proliferation / cytotoxicity, MDA-MB-231 breast; assay type: cell-based; conditions: for LC50: concentration producing 50% cell death vs control; for GI50: concentration producing 50% inhibition of cell growth vs control, NCI algorithm; for TGI: concentration producing total growth inhibition vs control
Method: (§1) The cytotoxic activity of compounds 1 and 2 was tested against NSLC A-549 human lung carcinoma cells, MDA-MB-231 human breast adenocarcinoma cells, HT-29 human colorectal carcinoma cells, and PSN1 (human pancreatic carcinoma cells). The concentration giving 50% inhibition of cell growth (GI50) was calculated according to the procedure described in the literature. Cell survival was estimated using the National Cancer Institute (NCI) algorithm. Three dose response parameters were calculated for 1 and 2.

[2] = test system: PSN1 (human pancreatic carcinoma cells); assay: Cell proliferation / cytotoxicity, PSN1 pancreas; assay type: cell-based; conditions: for LC50: concentration producing 50% cell death vs control; for GI50: concentration producing 50% inhibition of cell growth vs control, NCI algorithm; for TGI: concentration producing total growth inhibition vs control
Method: as §1

[3] = test system: NSLC A-549 human lung carcinoma cells; assay: Cell proliferation / cytotoxicity, NSLC A-549 lung; assay type: cell-based; conditions: for LC50: concentration producing 50% cell death vs control; for GI50: NCI algorithm; for TGI: concentration producing total growth inhibition vs control
Method: as §1

[4] = test system: human tumor cell lines A-549 (lung), HT-29 (colon), MDA-MB-231 (breast) and PSN1 (pancreas); assay: Cytotoxicity against four human tumor cell lines (summary in words); assay type: cell-based; conditions: GI50 values in the micromolar range
Method: as §1

[5] = test system: HT-29 human colorectal carcinoma cells; assay: Cell proliferation / cytotoxicity, HT-29 colon; assay type: cell-based; conditions: for LC50: concentration producing 50% cell death vs control; for GI50: concentration producing 50% inhibition of cell growth vs control, NCI algorithm; for TGI: concentration producing total growth inhibition vs control
Method: as §1

[6] = test system: recombinant human topoisomerase I; assay: Enzymatic Topoisomerase 1 (Top1) assay; assay type: biochemical; conditions: up to highest concentration tested 100 μM (range 100 to 0.2 μM); 50 pM enzyme; 1 h preincubation, 1 h reaction, room temperature, pH 8.0; H19 dye fluorescence
Method: The activity of human topoisomerase I was determined based on the increase in fluorescence of a commercial dye (“H19”, Profoldin, Westborough, MA, USA) when interacting with DNA and the higher number of interaction points present in supercoiled DNA with respect to relaxed DNA. Therefore, the activity of the enzyme causes a decrease of fluorescence intensity when the probe is added. The enzyme reaction is performed in a final volume of 20 μL in 384 black wells. Compounds 1 and 2, at twice their final concentrations, were mixed with 50 pM recombinant human topoisomerase I (Profoldin, Westborough, MA, USA) in 10 μL of 10 mM Tris-HCl pH 8.0 with 150 mM sodium chloride, 3 mM magnesium chloride and 5% (v/v) glycerol and incubated for 1 h at room temperature. Then, reaction was started by the addition of 10 μL of supercoiled DNA (Profoldin, Westborough, MA, USA) at 25 μg/mL in the same buffer and the mixture was incubated at room temperature for 1 h. […] After 1 h at room temperature the degree of conversion from supercoiled to relaxed DNA was determined by monitoring fluorescence intensity (excitation at 485 nm, emission at 535 nm) in a microtiter plate reader. […] IC50 values were calculated by fitting the results to a typical four parameters logistic curve by nonlinear regression analysis.

[7] = concentration producing 50% inhibition of cell growth vs control

SMILES	LC50 [1]	GI50 [1]	TGI [1]	LC50 [2]	GI50 [2]	TGI [2]	LC50 [3]	GI50 [3, 7]	TGI [3]	cytotoxic activity (in words) [4]	LC50 [5]	GI50 [5]	TGI [5]	Top1 inhibition [6]	GI50 ([1]; Homo sapiens)	GI50 ([2]; Homo sapiens)	GI50 ([3]; Homo sapiens, A549, concentration producing 50% inhibition of cell growth vs control)	GI50 ([5]; Homo sapiens)
CC[C@H](C)[C@@H]1NC(=O)c2csc(n2)[C@H](C)NC(=O)c2coc(n2)[C@H](C)NC(=O)c2csc1n2 [Bistratamide M (1), Bistratamide M]	>20.0 µM	18 µM	>20.0 µM	>20.0 µM	9.8 µM	>20.0 µM	>20.0 µM	9.1 µM	>20.0 µM	moderate cytotoxic activity with GI50 values in the micromolar range	>20.0 µM	16 µM	>20.0 µM	failed to show any hint of inhibition even at the highest concentration tested	–	–	–	–
CC[C@H](C)[C@@H]1NC(=O)c2csc(n2)[C@@H](C)NC(=O)c2coc(n2)[C@H](C)NC(=O)c2csc1n2 [Bistratamide N (2), Bistratamide N]	>20.0 µM	> 20 µM	>20.0 µM	>20.0 µM	15 µM	>20.0 µM	>20.0 µM	11 µM	>20.0 µM	moderate cytotoxic activity with GI50 values in the micromolar range	>20 µM	13 µM	>20 µM	failed to show any hint of inhibition even at the highest concentration tested	–	–	–	–
COc1cccc2c1C(=O)c1c(O)c3c(c(O)c1C2=O)C[C@@](O)(C(=O)CO)C[C@@H]3O[C@H]1C[C@H](N)[C@H](O)[C@H](C)O1 [Doxorubicin, reference compound]	2.4 µM	–	0.5 µM	3.1 µM	–	0.5 µM	>17.2 µM	–	0.9 µM	–	>17.2 µM	–	0.9 µM	–	0.2 µM	0.2 µM	0.2 µM	0.3 µM
